Assay results taken from paper doi:10.1101/2022.12.07.519454v2 (biorxiv, 2023).

Legend:
yeast Sin3 PAH2 domain [1] = target: T1, yeast Sin3 PAH2 domain (Saccharomyces cerevisiae, UniProt P22579); experiment: fluorescence polarization displacement of FITC-Ume6 SID; assay type: binding
T1 sequence (P22579 402-473): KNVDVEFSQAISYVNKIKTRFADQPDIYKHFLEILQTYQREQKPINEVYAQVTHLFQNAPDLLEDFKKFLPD

yeast Sin3 PAH2 domain [2] = target: T1, yeast Sin3 PAH2 domain; experiment: fluorescence polarization displacement of FITC-Ume6 SID peptide; assay type: binding

| Structure (SMILES) | Ki (yeast Sin3 PAH2 domain [1]) [µM] | IC50 (yeast Sin3 PAH2 domain [2]) [µM] |
| --- | --- | --- |
| C[C@@H](NC(=O)C1C(=O)N=C2C=CC=CN2C1O)c1ccccc1 (stereo partly drawn) [E6R, 4-hydroxy-2-oxo-N-((R)-1-phenylethyl)-3,4-dihydro-2H-pyrido[1,2-a]pyrimidine-3-carboxamide] | 16.1 | 74.5 ± 7.2 |
| C[C@H](NC(=O)C1C(=O)N=C2C=CC=CN2C1O)c1ccccc1 (stereo partly drawn) [E6S, 4-hydroxy-2-oxo-N-((S)-1-phenylethyl)-3,4-dihydro-2H-pyrido[1,2-a]pyrimidine-3-carboxamide] | 38.5 | 174 ± 21.9 |
